From patent US10952436B2, “Microbiocidal quinoline (thio)carboxamide derivatives” (SYNGENTA PARTICIPATIONS AG, priority 2017, dated 2021)

Assays:
[1] = test system: Botryotinia fuckeliana (Botrytis cinerea); assay: Botryotinia fuckeliana (Botrytis cinerea)/Liquid Culture (Gray Mould); format: cell-based; conditions: 200 ppm, liquid culture, compared to untreated control, 3-4 days after application, read-out: control of Botryotinia fuckeliana
[2] = test system: Fusarium culmorum; assay: microbe, parasite or virus in culture; format: cell-based; conditions: read-out: control of Fusarium culmorum
[3] = test system: Glomerella lagenarium (Colletotrichum lagenarium); assay: Glomerella lagenarium (Colletotrichum lagenarium)/Liquid Culture (Anthracnose); format: cell-based; conditions: Colletotrichum orbiculare; 200 ppm; liquid culture, compared to untreated control, 3-4 days after application; read-out: control of Glomerella lagenarium
[4] = test system: Monographella nivalis (Microdochium nivale); assay: Monographella nivalis (Microdochium nivale)/Liquid Culture (Foot Rot Cereals); format: cell-based; conditions: 200 ppm, liquid culture, compared to untreated control, 4-5 days after application, read-out: control of Monographella nivalis
[5] = test system: Magnaporthe grisea (Pyricularia oryzae); assay: microbe, parasite or virus in culture; format: cell-based; conditions: read-out: control of Magnaporthe grisea
[6] = test system: Magnaporthe grisea (Pyricularia oryzae); assay: whole plant or invertebrate; format: in vivo; conditions: foliar, read-out: control of Magnaporthe grisea
[7] = test system: Sclerotinia sclerotiorum; assay: Sclerotinia sclerotiorum/Liquid Culture (Cottony Rot); conditions: read-out: control of Sclerotinia sclerotiorum
Protocol: Mycelia fragments of a newly grown liquid culture of the fungus are directly mixed into nutrient broth (Vogels broth). After placing a (DMSO) solution of test compound into a microtiter plate (96-well format) the nutrient broth containing the fungal material is added. The test plates are incubated at 24° C. and the inhibition of growth is determined photometrically 3-4 days after application.

[8] = test system: Fusarium culmorum; assay: whole plant or invertebrate; format: in vivo; conditions: in Triticum aestivum, read-out: control of Fusarium culmorum
[9] = test system: Gaeumannomyces graminis; assay: Gaeumannomyces graminis/Liquid Culture (Take-all of Cereals); format: cell-based; conditions: 200 ppm, liquid culture, compared to untreated control, 4-5 days after application, read-out: control of Gaeumannomyces graminis

Work on Cc1nc2c(Cl)cccc2cc1NC(=O)C(C)(Cc1ccccc1)CC(C)C (centres unmarked) [Compound E-13, 2-benzyl-N-(8-chloro-2-methyl-3-quinolyl)-2,4-dimethyl-pentanamide] yielded an inhibition of growth at 200 ppm [1] of at least 80%, an inhibition of growth at 200 ppm [2] of at least 80% and an inhibition of growth at 200 ppm [3] of at least 80%. The inhibition of growth at 200 ppm [4] was at least 80%, the inhibition of growth at 200 ppm [5] was at least 80% and the pest or weed control at 200 ppm [6] was at least 80%. The melting point was 99 to 100 °C and the inhibition of growth at 20 ppm [7] was at least 80%.
Cc1nc2c(Cl)cccc2cc1NC(=O)C(C)(Cc1ccccc1)CC(F)(F)F (centres unmarked) [Compound E-17, 2-benzyl-N-(8-chloro-2-methyl-3-quinolyl)-4,4,4-trifluoro-2-methyl-butanamide] gave an inhibition of growth at 200 ppm [1] of at least 80%, an inhibition of growth at 200 ppm [2] of at least 80% and an inhibition of growth at 200 ppm [3] of at least 80%. It also gave an inhibition of growth at 200 ppm [4] of at least 80%, an inhibition of growth at 200 ppm [5] of at least 80% and a pest or weed control at 200 ppm [6] of at least 80%. It also gave a melting point of 47 to 50 °C and an inhibition of growth at 20 ppm [7] of at least 80%.
With C=C(Cl)CC(C)(Cc1ccccc1)C(=O)Nc1cnc2c(F)cccc2c1C (centres unmarked) [Compound E-20, 2-benzyl-4-chloro-N-(8-fluoro-4-methyl-3-quinolyl)-2-methyl-pent-4-enamide] the inhibition of growth at 200 ppm [1] was at least 80%, the inhibition of growth at 200 ppm [2] was at least 80% and the pest or weed control at 200 ppm [8] was at least 80%. It also gave an inhibition of growth at 200 ppm [3] of at least 80%, an inhibition of growth at 200 ppm [4] of at least 80% and an inhibition of growth at 200 ppm [5] of at least 80%. It also gave a pest or weed control at 200 ppm [6] of at least 80%, a melting point of 124 to 126 °C and an inhibition of growth at 20 ppm [7] of at least 80%.
With C=C(Cl)CC(C)(Cc1ccccc1)C(=O)Nc1cc2cccc(F)c2nc1C (centres unmarked) [Compound E-21, 2-benzyl-4-chloro-N-(8-fluoro-2-methyl-3-quinolyl)-2-methyl-pent-4-enamide] the inhibition of growth at 200 ppm [1] was at least 80%, the inhibition of growth at 200 ppm [2] was at least 80% and the pest or weed control at 200 ppm [8] was at least 80%. For the same molecule, the inhibition of growth at 200 ppm [3] was at least 80%, the inhibition of growth at 200 ppm [5] was at least 80% and the pest or weed control at 200 ppm [6] was at least 80%. The melting point was 121 to 123 °C and the inhibition of growth at 20 ppm [7] was at least 80%.
With Cc1c(NC(=O)C(Cc2ccccc2)CC(F)(F)F)cnc2c(F)cccc12 (centres unmarked) [Compound E-45, 2-benzyl-4,4,4-trifluoro-N-(8-fluoro-4-methyl-3-quinolyl)butanamide] the inhibition of growth at 200 ppm [1] was at least 80%, the inhibition of growth at 200 ppm [2] was at least 80% and the pest or weed control at 200 ppm [8] was at least 80%. It also gave an inhibition of growth at 200 ppm [3] of at least 80%, an inhibition of growth at 200 ppm [5] of at least 80% and a pest or weed control at 200 ppm [6] of at least 80%. It also gave a melting point of 165 to 167 °C and an inhibition of growth at 20 ppm [7] of at least 80%.
Molecule Cc1c(NC(=O)C(C)(Cc2ccccc2)CC(F)(F)F)cnc2c(F)cccc12 (centres unmarked) [Compound E-50, 2-benzyl-4,4,4-trifluoro-N-(8-fluoro-4-methyl-3-quinolyl)-2-methyl-butanamide] has an inhibition of growth at 200 ppm [1] of at least 80%, an inhibition of growth at 200 ppm [2] of at least 80% and a pest or weed control at 200 ppm [8] of at least 80%. It also gave an inhibition of growth at 200 ppm [3] of at least 80%, an inhibition of growth at 200 ppm [4] of at least 80% and an inhibition of growth at 200 ppm [5] of at least 80%. The pest or weed control at 200 ppm [6] was at least 80%, the melting point was 106 to 109 °C and the inhibition of growth at 20 ppm [7] was at least 80%.
C=C(C)CC(C)(Cc1ccccc1)C(=O)Nc1cc2cccc(F)c2nc1C (centres unmarked) [Compound E-66, 2-benzyl-N-(8-fluoro-2-methyl-3-quinolyl)-2,4-dimethyl-pent-4-enamide] showed an inhibition of growth at 200 ppm [1] of at least 80%, an inhibition of growth at 200 ppm [2] of at least 80% and a pest or weed control at 200 ppm [8] of at least 80%. The inhibition of growth at 200 ppm [3] was at least 80%, the inhibition of growth at 200 ppm [9] was at least 80% and the inhibition of growth at 200 ppm [4] was at least 80%. The inhibition of growth at 200 ppm [5] was at least 80%.
In the case of CC(C)(Cc1ccccc1)C(=O)Nc1cnc2c(F)cccc2c1 [Compound E-69, N-(8-fluoro-3-quinolyl)-2,2-dimethyl-3-phenyl-propanamide], the inhibition of growth at 200 ppm [1] is reported as at least 80%, the inhibition of growth at 200 ppm [2] is reported as at least 80% and the pest or weed control at 200 ppm [8] is reported as at least 80%. The inhibition of growth at 200 ppm [3] was at least 80%, the inhibition of growth at 200 ppm [9] was at least 80% and the inhibition of growth at 200 ppm [4] was at least 80%.
For CC(Cc1ccccc1)(CC1CC1(F)F)C(=O)Nc1cnc2c(F)cccc2c1 (centres unmarked) [Compound E-72, 2-benzyl-3-(2,2-difluorocyclopropyl)-N-(8-fluoro-3-quinolyl)-2-methyl-propanamide], the inhibition of growth at 200 ppm [1] was at least 80%, the inhibition of growth at 200 ppm [2] was at least 80% and the inhibition of growth at 200 ppm [3] was at least 80%. It also gave an inhibition of growth at 200 ppm [9] of at least 80%, an inhibition of growth at 200 ppm [4] of at least 80% and an inhibition of growth at 200 ppm [5] of at least 80%.
CC(Cc1ccccc1)(CC1CC1(Cl)Cl)C(=O)Nc1cnc2c(F)cccc2c1 (centres unmarked) [Compound E-75, 2-benzyl-3-(2,2-dichlorocyclopropyl)-N-(8-fluoro-3-quinolyl)-2-methyl-propanamide] showed an inhibition of growth at 200 ppm [1] of at least 80%, an inhibition of growth at 200 ppm [2] of at least 80% and an inhibition of growth at 200 ppm [3] of at least 80%. For the same molecule, the inhibition of growth at 200 ppm [9] was at least 80% and the inhibition of growth at 200 ppm [5] was at least 80%.
CCCC(C)(Cc1ccccc1)C(=O)Nc1cnc2c(F)cccc2c1 (centres unmarked) [Compound E-77, 2-benzyl-N-(8-fluoro-3-quinolyl)-2-methyl-pentanamide] gave an inhibition of growth at 200 ppm [1] of at least 80%, an inhibition of growth at 200 ppm [2] of at least 80% and a pest or weed control at 200 ppm [8] of at least 80%. The inhibition of growth at 200 ppm [3] was at least 80%, the inhibition of growth at 200 ppm [9] was at least 80% and the inhibition of growth at 200 ppm [4] was at least 80%. The inhibition of growth at 200 ppm [5] was at least 80%.
In the case of CC1(C[C@](C)(Cc2ccccc2)C(=O)Nc2cnc3c(F)cccc3c2)CC1 [Compound F-9, (2R)-2-benzyl-N-(8-fluoro-3-quinolyl)-2-methyl-3-(1-methylcyclopropyl) propanamide], the inhibition of growth at 200 ppm [1] is reported as at least 80%, the inhibition of growth at 200 ppm [2] is reported as at least 80% and the pest or weed control at 200 ppm [8] is reported as at least 80%. The inhibition of growth at 200 ppm [3] was at least 80%, the inhibition of growth at 200 ppm [4] was at least 80% and the inhibition of growth at 200 ppm [5] was at least 80%. The pest or weed control at 200 ppm [6] was at least 80%, the melting point was 62 to 64 °C and the inhibition of growth at 20 ppm [7] was at least 80%.
Molecule Cc1nc2c(F)cccc2cc1NC(=O)[C@](C)(Cc1ccccc1)CC(F)(F)F [Compound F-11, (2R)-2-benzyl-4,4,4-trifluoro-N-(8-fluoro-2-methyl-3-quinolyl)-2-methyl-butanamide] has an inhibition of growth at 200 ppm [1] of at least 80%, an inhibition of growth at 200 ppm [2] of at least 80% and a pest or weed control at 200 ppm [8] of at least 80%. The inhibition of growth at 200 ppm [3] was at least 80%, the inhibition of growth at 200 ppm [5] was at least 80% and the pest or weed control at 200 ppm [6] was at least 80%. For the same molecule, the melting point was 137 to 139 °C and the inhibition of growth at 20 ppm [7] was at least 80%.
In the case of Cc1nc2c(F)cccc2cc1NC(=O)[C@@](C)(Cc1ccccc1)CC(F)(F)F [Compound F-12, (2S)-2-benzyl-4,4,4-trifluoro-N-(8-fluoro-2-methyl-3-quinolyl)-2-methyl-butanamide], the inhibition of growth at 200 ppm [1] is reported as at least 80%, the inhibition of growth at 200 ppm [2] is reported as at least 80% and the pest or weed control at 200 ppm [8] is reported as at least 80%. The inhibition of growth at 200 ppm [3] was at least 80%, the inhibition of growth at 200 ppm [4] was at least 80% and the inhibition of growth at 200 ppm [5] was at least 80%. For the same molecule, the pest or weed control at 200 ppm [6] was at least 80%, the melting point was 135 to 136 °C and the inhibition of growth at 20 ppm [7] was at least 80%.
In the case of CC(C)C[C@@](C)(Cc1ccccc1)C(=O)Nc1cnc2c(F)cccc2c1 [Compound F-20, (2S)-2-benzyl-N-(8-fluoro-3-quinolyl)-2,4-dimethyl-pentanamide], the inhibition of growth at 200 ppm [1] is reported as at least 80%, the inhibition of growth at 200 ppm [2] is reported as at least 80% and the pest or weed control at 200 ppm [8] is reported as at least 80%. For the same molecule, the inhibition of growth at 200 ppm [3] was at least 80%, the inhibition of growth at 200 ppm [9] was at least 80% and the inhibition of growth at 200 ppm [4] was at least 80%.
